Test results published in US20040110681A1, “Method to identify targeting molecules” (priority 2002, published 2004).
Values joined by “and” are separate entries in the source; they are usually repeats but may differ in a detail not shown here. Equal entries are not always repeated. Positions of bridges follow the written chain, without caps; N, C: chain ends. Non-standard residues stand in square brackets, D forms with d. Residues, ends and D or L forms follow the SMILES beside them. hArg = N=C(N)NCCCC[C@H](N)C(=O)O; Mpa = O=C(O)CCS

What was measured:
[1] = system: platelets adhering to the pial vasculature; assay: Intravital microscopy of platelet adhesion to pial vessels, LPS-induced model of sepsis
Experimental: The effect of the A3 mimetic of blood cell adhesion to brain vasculature was assessed by intravital microscopy. Platelets or leukocytes were fluorescently labeled and then the interaction of the labeled cells with the vascular endothelium imaged and analyzed pre and post the addition of various compounds. Platelets were isolated from blood of source animals by differential centrifugation at 200 g for 10 minutes, to pellet erythrocytes and leukocytes. The supernatant, designated platelet-rich plasma contained less than 0.5% leukocytes as determined by the number of DAPI-positive nucleated cells. The platelets were pelleted by spinning at 500 g, resuspended in Tyrode's buffer and incubated for 20 min with 5-,-6-carboxyfluorescein diacetate, succinimidyl ester (CFDA, or CFSE). 1×10^8 platelets in 0.1 ml were injected slowly over 5 minutes via a carotid catheter into anesthetized mice. […] Platelet rolling and adhesion was recorded for off-line analysis onto videotape or onto hard-drive of the computer via an intensified camera (Cascade, Roper Scientific) on a Leica DM-FSA upright microscope. […] Leukocytes are fluorescence-labeled in vivo by injecting Rhodamine 6G via a carotid catheter and analyzing the movement of the labeled cells on brain endothelium.
For the platelet studies a known antagonist of platelet-platelet interactions, Integrilin™ (Cor Therapeutics) was also evaluated. […]

[2] = Pharmacokinetic analysis, plasma half-life of fusion protein and free peptide; assay type: in vivo; settings: read-out: plasma t½
brain tissue = assay: Individual peptide variants of A3 on phage, brain selectivity index vs T7-lacZ; assay type: in vivo, FVB or BALB/c mice; settings: 2 hours circulation; for Brain Targeting Activity: 0.5-1×10^10 pfu co-injected with T7-lacZ; for Selectivity index (FVB female) / Selectivity index (BALB/C mice): brain tissue; for Selectivity index (FVB female): FVB female mice
Experimental: In this example, various individual peptide variants of A3 were tested in vivo for their ability to target brain or other tissues. […] The phage contents of each organ were determined by plaque assay in the presence of X-gal (500 μg/mL) in top agar.
Thus, selectively indices of less than 10 are considered low, those between 10 and […] are considered moderate and those over 100 are considered high.

brain [3] = assay: Co-injection of A3 and control T7-LacZ phage, plaque assay of tissues and blood; assay type: in vivo, BALB/c mice; settings: 10^9 pfu of each phage, tail vein, 1 hour circulation
Experimental: Plaque assays were used to determine the relative amounts of phage contained in blood and brain. For the blood assays, 300 μl of blood was drawn into 300 μl of 100 mM sodium citrate before perfusion. Plasma was recovered and saved for plaque assay. The phage content was assessed by mixing aliquots of the tissue homogenate or plasma with the bacterial BLT-5615 host, then plating on agar plates.
40 μl of 40 mg/ml of X-gal in DMF was added into 3 ml of top agar in each plate.
A mixture of the two phage (10^9 pfu of each phage) was injected into the tail veins of non-anesthetized BALB/c mice. […] Another measure of selective retention is to compare target organ to blood levels of the test phage.

[4] = system: brain, lung, liver, kidney, blood and spleen; assay: Pharmacokinetic (PK) analysis of T7-CAGALCY and T7-lacZ phage, plaque assay; assay type: in vivo, FVB female mice
Experimental: A3-T7 was amplified in the host strain BLT-5615 in the presence of 1 mM IPTG and purified. T7-lacZ phage were amplified by large scale plating on LB plates. The plates were incubated at 25° C. overnight, and phage were eluted with phage extraction buffer (20 mM Tris-HCl, pH 8.0, 100 mM NaCl, 6 mM MgSO4) overnight at 4° C. with gentle rocking. The extracted phage were pooled and purified. In the PK study, in paragraph A below, three mice were used per time point, co-injected with 1×10^10 pfu of each phage. Time points were 2 min, 10 min, 30 min, 1 hr, 2 hr, 4 hr, 6 hr, 12 hr, and 24 hr.
Mice were anesthetized with Avertin 2-4 minutes before the scheduled harvest time (the mice assigned to the 2 minute time-point were anesthetized prior to administration of the phage). The brain, lung, liver, kidney, blood and spleen were harvested at 2 min, 10 min, 30 min, 1 hr, 2 hr, 4 hr, 6 hr, 12 hr, and 24 hr. The phage contents in each organ were determined by plaque assay in the presence of X-gal in top agar.

[5] = system: brain, lung, liver, kidney, colon; assay: Effect of dose on the brain-targeting properties of T7-CAGALCY (SI, SPI); assay type: in vivo, FVB female mice; settings: for Organ Specificity Index (SPI), ratio of SI brain to colon / Organ Specificity Index (SPI), ratio of SI brain to kidney / Organ Specificity Index (SPI), ratio of SI brain to liver / Organ Specificity Index (SPI), ratio of SI brain to lung / Selectivity index (SI), brain / Selectivity index (SI), colon / Selectivity index (SI), kidney / Selectivity index (SI), liver / Selectivity index (SI), lung: 4 hours; for Organ Specificity Index (SPI), ratio of SI brain to colon / Organ Specificity Index (SPI), ratio of SI brain to kidney / Organ Specificity Index (SPI), ratio of SI brain to liver / Organ Specificity Index (SPI), ratio of SI brain to lung: mean; for Selectivity index (SI), brain / Selectivity index (SI), colon / Selectivity index (SI), kidney / Selectivity index (SI), liver / Selectivity index (SI), lung: mean ± SEM
Experimental: In the dose response study, in paragraph B below, three mice were used per dose, co-injected with 1×10^7, 1×10^8, 1×10^9, 1×10^10, 1×10^11 pfu of each phage.
For each dose, three mice were injected. Four hours after phage administration, phage were recovered from the brain, lung, liver, kidney, colon, and blood.
This was measured as A3-T7 phage yield per gram tissue from various organs normalized by the yield/g tissue of the control phage.

brain [6] = assay: kSAR: co-injection of all 20 CAGAXCY (position 5) phage variants, sequence frequency in brain; assay type: in vivo, BALB/c mice
Experimental: To determine the optimum amino acid for position 5, all 20 variants at this position were injected. For co-injection of all 20 variants of CAGAXCY phage, individual phage were grown up and titered. Equivalent amounts of each phage type were added to PBS and 200 μL dose of the mixture was injected into 3 BALB/c mice per group (two time points of 30 minutes and 4 hours were studied, total of 6 mice). At 30 min and 4 hrs post injection, the mice were anesthetized, perfused and blood and brain were harvested. Aliquots of both the initial phage pool used for dosing as well as brain tissue samples were plated out, and approximately 100 individual plaques from each set were amplified by PCR using the T7 Super up primer method and sequenced using a CEQ 2000XL sequencer (Beckman Coulter, Calif.).
A total of 107 individual phage from the initial mixture used for dosing were sequenced to verify the relative abundance of the individual phage within the administered dose and these were compared with the relative frequency of the different phage recovered from brain after 30 minutes or 4 hours of circulation. There was a marked and rapid shift in frequency even by 30 minutes, where there was a marked enrichment of phage expressing N at the X5 position, (from 7% in the initial pool to 49%), M (from 5% to 24%) or L (2.8% to 12%) at 30 minutes.

brain [7] = assay: CX4CY phage library, one round of in vivo panning to brain; design: species or system BALB/c mice; settings: 4 hrs post phage injection
Experimental: A CX4CY library was prepared and tested. 1×10^10 pfu of the library phage were injected into 6 BALB/c mice (3 mice/time point). At 30 min and 4 hr post-injection, brain was harvested and processed as described above. Similar numbers of plaques were picked individually, and the insert sequence amplified by PCR and sequenced. Alignment analysis of the sequence data was performed with a version of Clustral/W.

brain [8] = assay: Head to head comparison of CAGAXCY variants (L5, N5, M5) vs control lacZ phage; assay type: in vivo; settings: 6 hours after administration vs 2 hours
[9] = 30 minutes after injection of 20-variant mixture
[10] = 4 hours after injection of 20-variant mixture

Compound: N=C(N)NCCCC[C@@H]1NC(=O)CCSSC[C@@H](C(N)=O)NC(=O)[C@@H]2CCCN2C(=O)[C@H](Cc2c[nH]c3ccccc23)NC(=O)[C@H](CC(=O)O)NC(=O)CNC1=O [Integrilin] ([Mpa][hArg]GDWPC-NH2; disulfide 1-7)
- platelet adhesion to pial vessels ([1]; 4 hours after i.p. 10 μg LPS, Integrilin at 40 mg/kg): slight antagonistic effect
- DIC and adhesion of microaggregates to the brain vasculature ([1]; higher doses than 40 mg/kg): exacerbated DIC and adhesion of microaggregates to the brain vasculature

Compound: CC(C)C[C@@H]1NC(=O)[C@H](C)NC(=O)CNC(=O)[C@H](C)NC(=O)[C@@H](N)CSSC[C@@H](C(=O)N[C@@H](Cc2ccc(O)cc2)C(=O)O)NC1=O [free synthetic peptide, CAGALCY] (H-CAGALCY-OH; disulfide 1-6)
- half-life [2]: 1 to 2 min

Compound: CAGAGCY
- Brain Targeting Activity (brain tissue): No
- Brain Targeting Activity (brain tissue; listed as L5G): loss of brain targeting activity
- Selectivity index (FVB female) (brain tissue): 1.1

Compound: CAGALC
- Brain Targeting Activity (brain tissue): No
- Selectivity index (FVB female) (brain tissue): 1.5

Compound: CAGALCAY
- Brain Targeting Activity (brain tissue): brain targeting activity is lost and No
- Selectivity index (FVB female) (brain tissue): 1.4

Compound: CAGALCF
- Brain Targeting Activity (brain tissue): Yes
- Selectivity index (BALB/C mice) (brain tissue): 800
- Selectivity index (FVB female) (brain tissue): >200

Compound: CAGALCS
- Brain Targeting Activity (brain tissue): loss of brain targeting activity and No
- Selectivity index (FVB female) (brain tissue): 3.0

Compound: CAGALCY [T7-A3]
- brain to blood ratio after normalization to control phage (brain [3]): > 100 fold
- ratio of yield/g brain and yield/mL blood between T7-A3 and T7-lacZ phage ([4]; 2 hr): 250
- Selectivity index (SI), brain ([4]; 2 hr, 1×10^10 pfu): 51
- Selectivity index (SI), lung ([4]; 2 hr, 1×10^10 pfu): 16.0
- selectivity index (SI), spleen ([4]; 2 hr, 1×10^10 pfu): 1.98
- relative specificity for brain (SI brain compared to lung) ([4]; 4 hour time point): 6 fold
- ratio of yield/g brain and yield/mL blood between T7-A3 and T7-lacZ phage ([4]; 4 hr): 1200
- Selectivity index (SI), brain ([4]; 4 hr, 1×10^10 pfu): 280 and 288
- Selectivity index (SI), liver ([4]; 4 hr, 1×10^10 pfu): 4.62
- Selectivity index (SI), lung ([4]; 4 hr, 1×10^10 pfu): 54.8 and 47
- selectivity index, brain ([4]; difference of half-lives in blood taken into account): over 100
- Organ Specificity Index (SPI), ratio of SI brain to colon ([5]; 1 × 10^7 pfu): 4.57
- Organ Specificity Index (SPI), ratio of SI brain to kidney ([5]; 1 × 10^7 pfu): 1.92
- Organ Specificity Index (SPI), ratio of SI brain to liver ([5]; 1 × 10^7 pfu): 2.34
- Organ Specificity Index (SPI), ratio of SI brain to lung ([5]; 1 × 10^7 pfu): 4.23
- Selectivity index (SI), brain ([5]; 1 × 10^7 pfu): 13.2
- Selectivity index (SI), colon ([5]; 1 × 10^7 pfu): 1.8 ± 1.1
- Selectivity index (SI), kidney ([5]; 1 × 10^7 pfu): 5.0 ± 3.1
- Selectivity index (SI), liver ([5]; 1 × 10^7 pfu): 6.3 ± 5.4
- Selectivity index (SI), lung ([5]; 1 × 10^7 pfu): 1.9 ± 0.8
- Organ Specificity Index (SPI), ratio of SI brain to colon ([5]; 1 × 10^8 pfu): 2.82
- Organ Specificity Index (SPI), ratio of SI brain to kidney ([5]; 1 × 10^8 pfu): 2.08
- Organ Specificity Index (SPI), ratio of SI brain to liver ([5]; 1 × 10^8 pfu): 3.27
- Organ Specificity Index (SPI), ratio of SI brain to lung ([5]; 1 × 10^8 pfu): 0.65
- Selectivity index (SI), brain ([5]; 1 × 10^8 pfu): 10.5 and 10
- Selectivity index (SI), colon ([5]; 1 × 10^8 pfu): 4.3 ± 1.8
- Selectivity index (SI), kidney ([5]; 1 × 10^8 pfu): 5.4 ± 1.3
- Selectivity index (SI), liver ([5]; 1 × 10^8 pfu): 4.2 ± 1.9
- Selectivity index (SI), lung ([5]; 1 × 10^8 pfu): 14.3 ± 6.8
- Organ Specificity Index (SPI), ratio of SI brain to colon ([5]; 1 × 10^9 pfu): 8.87
- Organ Specificity Index (SPI), ratio of SI brain to kidney ([5]; 1 × 10^9 pfu): 3.27
- Organ Specificity Index (SPI), ratio of SI brain to liver ([5]; 1 × 10^9 pfu): 26
- Organ Specificity Index (SPI), ratio of SI brain to lung ([5]; 1 × 10^9 pfu): 3.23
- Selectivity index (SI), brain ([5]; 1 × 10^9 pfu): 121
- Selectivity index (SI), colon ([5]; 1 × 10^9 pfu): 18.3 ± 6.8
- Selectivity index (SI), kidney ([5]; 1 × 10^9 pfu): 47.3 ± 18.5
- Selectivity index (SI), liver ([5]; 1 × 10^9 pfu): 8.2 ± 3.1
- Selectivity index (SI), lung ([5]; 1 × 10^9 pfu): 47.3 ± 12.5
- Organ Specificity Index (SPI), ratio of SI brain to lung ([5]; 1 × 10^10 pfu): 4.03
- Selectivity index (SI), brain ([5]; 1 × 10^10 pfu): 150
- Selectivity index (SI), colon ([5]; 1 × 10^10 pfu): 7.9 ± 1.2
- Selectivity index (SI), kidney ([5]; 1 × 10^10 pfu): 20.7 ± 6.4
- Selectivity index (SI), liver ([5]; 1 × 10^10 pfu): 8.9 ± 5.1
- Selectivity index (SI), lung ([5]; 1 × 10^10 pfu): 40.7 ± 9.2
- Organ Specificity Index (SPI), ratio of SI brain to lung ([5]; 1 × 10^11 pfu): 3.3
- Selectivity index (SI), brain ([5]; 1 × 10^11 pfu): 118 ± 47.3
- Selectivity index (SI), colon ([5]; 1 × 10^11 pfu): 5.3 ± 1.6
- Selectivity index (SI), kidney ([5]; 1 × 10^11 pfu): 10.3 ± 1.7
- Selectivity index (SI), liver ([5]; 1 × 10^11 pfu): 4.2 ± 0.4
- Selectivity index (SI), lung ([5]; 1 × 10^11 pfu): 35.3 ± 11.0
- SPI values for lung, liver, kidney or colon compared to the other organs ([5]; all doses tested): lower than 10
- Brain Targeting Activity (brain tissue): Yes
- Selectivity index (BALB/C mice) (brain tissue): 1000
- Selectivity index (FVB female) (brain tissue): >200
- frequency of phage variant recovered from brain (brain [6]; [9]): 12%
- frequency of phage variant recovered from brain (brain [6]; [10]): 7.5%
- enrichment among 83 sequences sampled from the brain (brain [7]): no enriched phage
- change of brain SI values (brain [8]): increase further

Compound: CAGALSY
- Brain Targeting Activity (brain tissue): brain targeting capacity is lost and No
- Selectivity index (FVB female) (brain tissue): 1.9

Compound: CAGAMCY
- frequency of phage variant recovered from brain (brain [6]; [9]): 24%
- frequency of phage variant recovered from brain (brain [6]; [10]): 37%
- enrichment among 83 sequences sampled from the brain (brain [7]): no enriched phage
- change of brain SI values (brain [8]): increase further

Compound: CAGANCY
- frequency of phage variant recovered from brain (brain [6]; [9]): 49%
- frequency of phage variant recovered from brain (brain [6]; [10]): 55%
- enrichment among 83 sequences sampled from the brain (brain [7]): no enriched phage
- change of brain SI values (brain [8]): slight decrease

Compound: CAGAPCY
- Brain Targeting Activity (brain tissue): brain targeting capacity is lost and No
- Selectivity index (FVB female) (brain tissue): 7.6
